Reference: PMC3940698 (PLoS ONE, 2014)
Where two headings read alike, the source gives them in different places. Blank lines part the entries; values can stand above or below the molecule they belong to.

How the values were obtained:
[1] = molecular target: T1, CYP2C9 (Homo sapiens, UniProt P11712); experiment: CYP2C9 baculosomes, diclofenac hydroxylation, inhibition; format: biochemical; details: for Ki / Global Ki, linear regression / Global Ki, non-linear regression / Localized Ki, Chance equation / Localized Ki, Cheng-Prusoff equation: CYP2C9+Diclof;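 on all read-outs here: reactions run at 27 °C in 100 mM potassium phosphate, pH 7.4, in a 250 µl volume, with hydroxylated product quantified from HPLC peak areas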
T1 construct: purchased Life Technologies (and Panvera), Invitrogen

[2] = molecular target: T2, CYP2E1 (Homo sapiens, UniProt P05181); experiment: CYP2E1 baculosomes, pNP reaction; details: for Ki, Cheng-Prusoff method (in words): pNP reactions, CYP2E1 baculosomes, inhibitor 10 nM
[3] = test system: rat liver microsomes (mixed CYPs); experiment: Rat liver microsomes, diclofenac hydroxylation, inhibition; format: biochemical; details: for Global Ki, non-linear regression: KM taken as 10 µM
Text: In some reactions, another method was used.

[4] = test system: various CYPs tested (CYP2C9, CYP3A4, CYP2D6, CYP2E1); experiment: Ki of BzBr for the various CYPs tested (baculosomes, Diclof or pNP); details: equivalent substrate-BzBr concentrations
[5] = molecular target: T3, CYP3A4 (Homo sapiens, UniProt P08684); experiment: CYP3A4 baculosomes, diclofenac or pNP product formation; format: biochemical; details: CYP3A4 baculosomes 20 nM, inhibitor equivalent amount, 30 minutes
T3 construct: host or cells: baculosomes

[6] = molecular target: T4, CYP2D6 (Homo sapiens, UniProt P10635); experiment: CYP2D6 baculosomes, diclofenac or pNP product formation; format: biochemical; details: CYP2D6 baculosomes 20 nM, inhibitor equivalent amount, 30 minutes
T4 construct: host or cells: baculosomes

[7] = molecular target: T2, CYP2E1
[8] = molecular target: T1, CYP2C9; details: ref [4]-[6]; cited from earlier work
[9] = [I] 0.01 µM, read-out: Localized Ki, Chance equation
[10] = [I] 1 µM, read-out: Localized Ki, Chance equation
[11] = [I] 1 µM, read-out: Localized Ki, Cheng-Prusoff equation
[12] = [I] 100 µM, read-out: Localized Ki, Cheng-Prusoff equation
[13] = 10 nM CYP, 100 µM diclofenac, 200 µM NADPH
[14] = KM taken as 10 µM, 10 nM CYP, 100 µM diclofenac, 200 µM NADPH
[15] = [I] 0.01 µM, read-out: Localized Ki, Cheng-Prusoff equation
[16] = Microsomes+Diclof, 0.5 µM CYP, 200 µM diclofenac, 400 µM NADPH

T2 sequence (P05181 whole entry): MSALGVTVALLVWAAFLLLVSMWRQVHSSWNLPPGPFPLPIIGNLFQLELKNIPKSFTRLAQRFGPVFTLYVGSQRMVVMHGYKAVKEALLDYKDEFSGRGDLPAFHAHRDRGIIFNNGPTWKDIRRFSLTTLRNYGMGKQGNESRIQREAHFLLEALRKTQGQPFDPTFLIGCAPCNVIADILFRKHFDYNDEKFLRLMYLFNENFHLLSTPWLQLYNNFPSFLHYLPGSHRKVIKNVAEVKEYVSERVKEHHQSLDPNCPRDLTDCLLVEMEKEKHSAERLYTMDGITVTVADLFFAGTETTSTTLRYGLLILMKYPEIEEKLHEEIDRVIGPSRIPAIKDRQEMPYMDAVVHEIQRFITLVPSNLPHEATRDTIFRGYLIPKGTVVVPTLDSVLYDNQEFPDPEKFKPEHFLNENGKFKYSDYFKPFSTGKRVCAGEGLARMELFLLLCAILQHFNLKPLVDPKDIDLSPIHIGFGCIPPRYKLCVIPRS
T1 sequence (P11712 whole entry): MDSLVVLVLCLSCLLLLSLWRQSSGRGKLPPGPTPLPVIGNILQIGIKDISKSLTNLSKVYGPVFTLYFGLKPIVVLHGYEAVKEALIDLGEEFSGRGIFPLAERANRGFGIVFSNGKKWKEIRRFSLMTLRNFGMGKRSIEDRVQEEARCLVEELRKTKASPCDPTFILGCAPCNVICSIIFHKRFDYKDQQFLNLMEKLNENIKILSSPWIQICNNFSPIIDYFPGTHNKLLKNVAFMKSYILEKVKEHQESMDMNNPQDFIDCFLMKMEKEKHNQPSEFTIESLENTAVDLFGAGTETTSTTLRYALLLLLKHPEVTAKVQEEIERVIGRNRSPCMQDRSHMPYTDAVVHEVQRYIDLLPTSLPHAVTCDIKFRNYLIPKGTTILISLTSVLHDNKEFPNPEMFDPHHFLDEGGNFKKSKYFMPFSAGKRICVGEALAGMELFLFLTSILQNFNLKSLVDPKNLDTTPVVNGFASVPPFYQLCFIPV
T3 sequence (P08684 2-503 limits assumed): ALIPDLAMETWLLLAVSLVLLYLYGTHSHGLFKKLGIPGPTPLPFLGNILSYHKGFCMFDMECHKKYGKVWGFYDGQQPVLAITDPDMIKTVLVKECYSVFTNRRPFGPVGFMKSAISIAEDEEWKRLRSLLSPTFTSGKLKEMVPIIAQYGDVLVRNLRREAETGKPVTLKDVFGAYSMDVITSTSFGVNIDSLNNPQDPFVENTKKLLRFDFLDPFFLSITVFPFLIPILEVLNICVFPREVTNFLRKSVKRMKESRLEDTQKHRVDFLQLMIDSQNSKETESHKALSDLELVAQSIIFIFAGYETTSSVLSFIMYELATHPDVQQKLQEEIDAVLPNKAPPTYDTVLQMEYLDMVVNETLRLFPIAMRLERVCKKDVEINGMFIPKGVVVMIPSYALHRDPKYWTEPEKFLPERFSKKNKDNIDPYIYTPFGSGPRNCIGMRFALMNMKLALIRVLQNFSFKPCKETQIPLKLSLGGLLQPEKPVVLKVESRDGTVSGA
T4 sequence (P10635 whole entry): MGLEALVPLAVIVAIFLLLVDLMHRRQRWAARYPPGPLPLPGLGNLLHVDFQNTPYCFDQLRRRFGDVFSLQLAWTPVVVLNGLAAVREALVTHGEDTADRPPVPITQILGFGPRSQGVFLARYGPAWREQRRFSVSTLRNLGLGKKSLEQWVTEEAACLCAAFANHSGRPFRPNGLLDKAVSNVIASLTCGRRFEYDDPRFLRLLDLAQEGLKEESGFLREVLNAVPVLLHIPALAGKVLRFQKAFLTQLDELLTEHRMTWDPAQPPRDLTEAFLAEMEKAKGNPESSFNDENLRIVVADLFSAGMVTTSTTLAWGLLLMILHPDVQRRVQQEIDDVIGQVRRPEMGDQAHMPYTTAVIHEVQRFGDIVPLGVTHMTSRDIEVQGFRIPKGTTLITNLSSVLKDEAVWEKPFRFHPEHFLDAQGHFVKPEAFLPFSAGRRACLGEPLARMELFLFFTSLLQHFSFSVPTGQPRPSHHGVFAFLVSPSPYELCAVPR

Molecule: O=C(O)c1cc(Br)c(O)c(Br)c1 [DBHB]
Ki [1, 9]: 6.4 nM | Ki [1, 10]: 97700 nM | Ki [1, 11]: 89.9 nM | Ki [1, 12]: 8680 nM | Ki via non-linear regression (in words) ([1]; CYP2C9 baculosomes): sub-nanomolar | Ki via linear regression analysis (in words) ([1]; CYP2C9 baculosomes, same experimental data): supra-millimolar | Ki, Cheng-Prusoff method (in words) [2]: low nM ranges

Molecule: CCc1oc2ccccc2c1C(=O)c1cc(Br)c(O)c(Br)c1 [BzBr, benzbromarone]
Global Ki, linear regression [3, 16]: - | Global Ki, non-linear regression [3, 16]: - | Ki, Cheng-Prusoff method (in words) [2]: low nM ranges | Ki derived from calculations (in words) [4]: Submicromolar

Molecule: COc1cc(Br)c(O)c(Br)c1 [DBMP]
Localized Ki, Chance equation ([1]; [I] 0.01 µM): - | Localized Ki, Cheng-Prusoff equation ([1]; [I] 0.01 µM): - | Ki [1, 11]: 306 nM | Ki [1, 12]: 95400 nM | Ki, Cheng-Prusoff method (in words) [2]: low nM ranges

Molecule: Oc1c(Br)cccc1Br [DBP]
Ki [1, 11]: 2610 nM | Localized Ki, Chance equation ([1]; [I] 100 µM): - | Localized Ki, Cheng-Prusoff equation ([1]; [I] 100 µM): - | Ki at 10 nM inhibitor (in words) ([1]; CYP2C9 baculosome system, 10 nM): nanomolar | Ki at 1 µM inhibitor (in words) ([1]; CYP2C9 baculosome system, 1 µM): micromolar | Inhibition at 100 µM ([1]; CYP2C9 baculosome system, 100 µM): failed to give any inhibition | Inhibition at 100 µM ([3]; mixed microsomes, 100 µM): failed to give any inhibition | Ki, Cheng-Prusoff method (in words) [2]: low nM ranges

Molecule: Benzothiadiazole
Relative percentage of hydroxylated product formed vs positive control ([1]; CYP2C9 baculosomes 20 nM, 80 µM Diclof, inhibitor equivalent amount, 250 µM NADPH, 30 minutes): 90.1% | Relative percentage of hydroxylated product formed vs positive control ([5]; 80 µM Diclof): 17% | Relative percentage of hydroxylated product formed vs positive control ([5]; 80 µM pNP): ∼15% | Relative percentage of hydroxylated product formed vs positive control ([6]; 80 µM Diclof): 0.3% | Relative percentage of hydroxylated product formed vs positive control ([6]; 80 µM pNP): ∼15% | Relative percentage of hydroxylated product formed vs positive control ([2]; CYP2E1 baculosomes 20 nM, 80 µM pNP, inhibitor equivalent amount, 30 minutes): 15%

Molecule: vitamin E [Vit. E]
Ki (in words) ([1]; baculosome reaction setup): ∼nM

Molecule: CCc1oc2ccccc2c1C(=O)c1cc(I)c(O)c(I)c1 [BzIr, benziodarone]
Ki ([1]; 10 nM CYP, 100 µM diclofenac, 200 µM NADPH, read-out: Global Ki, linear regression): 30900 nM | Ki ([1]; KM taken as 10 µM, 10 nM CYP, 100 µM diclofenac, 200 µM NADPH, read-out: Global Ki, non-linear regression): 2.8 nM | Ki [1, 9]: 243 nM | Ki [1, 15]: 2.6 nM | Ki [1, 10]: 995 nM | Ki [1, 11]: 9.1 nM | Ki ([1]; [I] 100 µM, read-out: Localized Ki, Chance equation): 190000 nM | Ki [1, 12]: 650 nM | Global Ki, linear regression [3, 16]: - | Global Ki, non-linear regression [3, 16]: - | Ki, Cheng-Prusoff method (in words) [7]: low nM ranges | Ki [8]: ≤ 1 nM

Other lines, results leading:

Global Ki, linear regression [1, 13]: - | Global Ki, non-linear regression [1, 14]: - | Ki [1, 9]: 5.5 nM | Ki [1, 15]: 0.7 nM | Localized Ki, Chance equation ([1]; [I] 1 µM): - | Localized Ki, Cheng-Prusoff equation ([1]; [I] 1 µM): - | Ki [1, 12]: 42600 nM
Molecule: NC(Cc1cc(I)c(O)c(I)c1)C(=O)O (centres unmarked) [DIT]

Ki ([3]; read-out: Ki at 100 µM inhibitor, microsome setups, 100 µM inhibitor): 3700 nM
Molecule: CCc1oc2ccccc2c1C(=O)c1cc(Br)c(OC)c(Br)c1 [MeOBzBr]

Global Ki, linear regression [1, 13]: - | Global Ki, non-linear regression [1, 14]: - | Ki ([3]; Microsomes+Diclof, 0.5 µM CYP, 200 µM diclofenac, 400 µM NADPH, read-out: Global Ki, linear regression): 242 nM
Molecule: CCc1oc2ccccc2c1C(=O)c1ccc(OC)cc1 [MeOBzr]

Global Ki, linear regression [1, 13]: - | Global Ki, non-linear regression [1, 14]: -
Molecule: CCc1oc2ccccc2c1C(=O)c1cc(I)c(OC)c(I)c1 [MeOBzIr]
